# Source: paper PMC8213057, “Targeting ALK2: An Open Science Approach to Developing Therapeutics for the Treatment of Diffuse Intrinsic Pontine Glioma” (Journal of Medicinal Chemistry, 2020)
# Assays:
# [1] = target: CDK5/p35 (Homo sapiens, UniProt Q00535); details: 1 μM; Run 1, Run 2
# [2] = target: CHK2 (Homo sapiens, UniProt O96017); details: 1 μM; Run 1, Run 2
# [3] = target: FAK/PTK2 (Homo sapiens, UniProt Q05397); details: 1 μM; Run 1, Run 2
# [4] = target: JNK3 (Homo sapiens, UniProt P53779); details: 1 μM; Run 1, Run 2
# [5] = target: LOK/STK10 (Homo sapiens, UniProt O94804); details: 1 μM; Run 1, Run 2
# [6] = target: T1, MKK7 (Homo sapiens, UniProt O14733); details: 1 μM; Run 1, Run 2
# T1 sequence (O14733 1-419): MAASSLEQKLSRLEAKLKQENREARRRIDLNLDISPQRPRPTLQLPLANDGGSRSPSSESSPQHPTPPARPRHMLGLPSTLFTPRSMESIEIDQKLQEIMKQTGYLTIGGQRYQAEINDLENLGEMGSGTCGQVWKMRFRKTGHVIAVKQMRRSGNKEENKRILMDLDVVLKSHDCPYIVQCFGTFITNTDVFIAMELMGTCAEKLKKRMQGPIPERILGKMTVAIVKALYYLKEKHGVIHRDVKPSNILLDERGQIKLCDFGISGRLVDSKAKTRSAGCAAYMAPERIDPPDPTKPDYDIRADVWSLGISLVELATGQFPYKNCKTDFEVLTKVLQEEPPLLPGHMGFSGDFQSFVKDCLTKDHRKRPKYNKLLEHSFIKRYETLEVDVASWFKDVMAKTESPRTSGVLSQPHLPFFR
# [7] = target: MSSK1/STK23 (Homo sapiens, UniProt Q9UPE1); details: 1 μM; Run 1, Run 2
# Sequence of MSSK1/STK23 (Q9UPE1 whole entry): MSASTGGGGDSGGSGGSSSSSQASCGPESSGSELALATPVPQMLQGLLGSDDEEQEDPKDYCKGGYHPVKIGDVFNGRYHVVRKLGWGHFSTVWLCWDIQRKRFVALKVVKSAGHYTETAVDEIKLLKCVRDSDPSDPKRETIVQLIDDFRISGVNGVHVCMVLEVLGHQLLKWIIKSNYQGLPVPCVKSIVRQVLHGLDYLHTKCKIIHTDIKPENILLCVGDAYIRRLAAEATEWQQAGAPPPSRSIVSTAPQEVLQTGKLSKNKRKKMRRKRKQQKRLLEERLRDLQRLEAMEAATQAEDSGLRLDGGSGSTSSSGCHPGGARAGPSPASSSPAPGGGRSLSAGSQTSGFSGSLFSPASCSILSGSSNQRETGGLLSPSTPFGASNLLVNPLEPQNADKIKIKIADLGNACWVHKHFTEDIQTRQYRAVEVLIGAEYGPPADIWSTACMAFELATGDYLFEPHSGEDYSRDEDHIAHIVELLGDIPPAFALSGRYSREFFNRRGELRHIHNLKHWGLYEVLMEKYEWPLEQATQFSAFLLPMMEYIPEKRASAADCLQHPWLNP
# [8] = target: ROCK1 (Homo sapiens, UniProt Q13464); details: 1 μM; Run 1, Run 2
# [9] = target: T2, ZAP70 (Homo sapiens, UniProt P43403); details: 1 μM; Run 1, Run 2
# T2 sequence (P43403 1-619): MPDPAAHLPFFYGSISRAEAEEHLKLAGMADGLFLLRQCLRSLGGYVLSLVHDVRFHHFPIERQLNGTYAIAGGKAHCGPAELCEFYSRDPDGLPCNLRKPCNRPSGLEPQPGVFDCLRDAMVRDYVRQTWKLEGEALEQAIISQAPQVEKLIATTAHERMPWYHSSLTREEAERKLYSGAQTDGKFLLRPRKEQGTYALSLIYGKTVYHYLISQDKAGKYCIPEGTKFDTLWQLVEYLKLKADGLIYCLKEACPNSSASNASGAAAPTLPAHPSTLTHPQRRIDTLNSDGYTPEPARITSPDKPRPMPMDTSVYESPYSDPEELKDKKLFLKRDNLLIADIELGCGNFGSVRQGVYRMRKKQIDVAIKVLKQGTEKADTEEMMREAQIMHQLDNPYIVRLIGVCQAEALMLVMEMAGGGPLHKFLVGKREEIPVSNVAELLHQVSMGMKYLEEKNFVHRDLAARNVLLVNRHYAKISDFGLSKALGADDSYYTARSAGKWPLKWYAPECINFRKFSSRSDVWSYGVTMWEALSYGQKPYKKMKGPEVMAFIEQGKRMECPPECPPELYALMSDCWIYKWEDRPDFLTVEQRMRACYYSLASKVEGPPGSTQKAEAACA
# [10] = target: IR (Homo sapiens, UniProt P06213); assay: biochemical; details: read-out: % enzyme activity, 1 μM; Run 1, Run 2
# Sequence of IR (P06213 28-1382): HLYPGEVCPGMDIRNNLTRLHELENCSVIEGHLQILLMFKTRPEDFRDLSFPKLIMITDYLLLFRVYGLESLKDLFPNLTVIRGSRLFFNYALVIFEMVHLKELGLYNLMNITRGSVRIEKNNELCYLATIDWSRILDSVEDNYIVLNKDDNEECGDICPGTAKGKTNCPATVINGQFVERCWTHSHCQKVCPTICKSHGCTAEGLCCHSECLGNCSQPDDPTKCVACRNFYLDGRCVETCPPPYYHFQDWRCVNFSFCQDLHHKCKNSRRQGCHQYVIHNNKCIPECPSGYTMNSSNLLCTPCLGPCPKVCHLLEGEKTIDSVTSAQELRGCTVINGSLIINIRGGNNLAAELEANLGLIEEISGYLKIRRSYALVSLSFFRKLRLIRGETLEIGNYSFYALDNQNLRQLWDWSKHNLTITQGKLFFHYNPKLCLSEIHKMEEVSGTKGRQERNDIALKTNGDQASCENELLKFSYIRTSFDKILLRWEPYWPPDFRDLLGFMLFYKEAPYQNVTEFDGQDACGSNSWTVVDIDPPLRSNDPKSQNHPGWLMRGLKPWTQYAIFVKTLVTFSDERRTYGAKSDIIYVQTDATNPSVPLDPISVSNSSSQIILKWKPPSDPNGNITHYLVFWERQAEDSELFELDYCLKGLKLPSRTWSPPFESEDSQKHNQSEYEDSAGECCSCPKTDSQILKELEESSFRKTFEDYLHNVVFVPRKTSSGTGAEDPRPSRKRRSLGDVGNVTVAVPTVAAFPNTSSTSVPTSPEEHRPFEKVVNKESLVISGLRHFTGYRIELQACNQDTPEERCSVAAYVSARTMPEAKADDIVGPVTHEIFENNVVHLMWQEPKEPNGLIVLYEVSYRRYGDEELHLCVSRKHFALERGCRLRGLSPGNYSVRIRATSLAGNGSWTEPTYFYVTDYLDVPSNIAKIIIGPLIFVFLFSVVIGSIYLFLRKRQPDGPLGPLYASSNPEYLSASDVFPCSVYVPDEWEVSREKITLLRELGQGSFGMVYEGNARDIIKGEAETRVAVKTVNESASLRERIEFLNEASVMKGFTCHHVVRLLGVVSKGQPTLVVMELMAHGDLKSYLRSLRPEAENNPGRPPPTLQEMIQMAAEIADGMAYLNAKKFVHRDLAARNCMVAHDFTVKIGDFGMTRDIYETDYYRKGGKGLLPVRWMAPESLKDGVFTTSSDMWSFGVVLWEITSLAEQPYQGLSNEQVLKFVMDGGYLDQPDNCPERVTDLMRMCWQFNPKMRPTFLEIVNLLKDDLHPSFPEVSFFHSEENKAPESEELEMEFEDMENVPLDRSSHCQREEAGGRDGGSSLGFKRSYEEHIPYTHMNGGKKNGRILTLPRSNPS
# [11] = target: T3, MEKK3 (Homo sapiens, UniProt Q99759); assay: biochemical; details: read-out: % enzyme activity, 1 μM; Run 1, Run 2
# T3 sequence (Q99759 1-626): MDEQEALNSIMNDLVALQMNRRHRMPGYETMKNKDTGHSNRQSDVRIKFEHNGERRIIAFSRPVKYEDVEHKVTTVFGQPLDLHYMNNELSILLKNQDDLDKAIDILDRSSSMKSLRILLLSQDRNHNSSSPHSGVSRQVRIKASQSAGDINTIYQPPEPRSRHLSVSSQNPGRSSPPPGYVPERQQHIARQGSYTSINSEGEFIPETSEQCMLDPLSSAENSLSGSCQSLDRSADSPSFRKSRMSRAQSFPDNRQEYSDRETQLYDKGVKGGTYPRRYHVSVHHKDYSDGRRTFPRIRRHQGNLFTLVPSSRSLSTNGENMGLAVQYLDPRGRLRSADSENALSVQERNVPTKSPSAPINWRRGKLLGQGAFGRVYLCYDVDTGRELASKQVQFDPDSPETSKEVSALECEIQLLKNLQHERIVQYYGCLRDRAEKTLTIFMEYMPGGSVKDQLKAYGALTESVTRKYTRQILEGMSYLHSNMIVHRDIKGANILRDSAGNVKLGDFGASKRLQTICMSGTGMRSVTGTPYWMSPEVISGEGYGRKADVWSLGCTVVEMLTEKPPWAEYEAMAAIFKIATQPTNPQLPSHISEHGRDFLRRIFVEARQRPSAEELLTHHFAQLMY
# [12] = target: RSK2 (Homo sapiens, UniProt P51812); assay: biochemical; details: read-out: % enzyme activity, 1 μM; Run 1, Run 2
# Sequence of RSK2 (P51812 whole entry): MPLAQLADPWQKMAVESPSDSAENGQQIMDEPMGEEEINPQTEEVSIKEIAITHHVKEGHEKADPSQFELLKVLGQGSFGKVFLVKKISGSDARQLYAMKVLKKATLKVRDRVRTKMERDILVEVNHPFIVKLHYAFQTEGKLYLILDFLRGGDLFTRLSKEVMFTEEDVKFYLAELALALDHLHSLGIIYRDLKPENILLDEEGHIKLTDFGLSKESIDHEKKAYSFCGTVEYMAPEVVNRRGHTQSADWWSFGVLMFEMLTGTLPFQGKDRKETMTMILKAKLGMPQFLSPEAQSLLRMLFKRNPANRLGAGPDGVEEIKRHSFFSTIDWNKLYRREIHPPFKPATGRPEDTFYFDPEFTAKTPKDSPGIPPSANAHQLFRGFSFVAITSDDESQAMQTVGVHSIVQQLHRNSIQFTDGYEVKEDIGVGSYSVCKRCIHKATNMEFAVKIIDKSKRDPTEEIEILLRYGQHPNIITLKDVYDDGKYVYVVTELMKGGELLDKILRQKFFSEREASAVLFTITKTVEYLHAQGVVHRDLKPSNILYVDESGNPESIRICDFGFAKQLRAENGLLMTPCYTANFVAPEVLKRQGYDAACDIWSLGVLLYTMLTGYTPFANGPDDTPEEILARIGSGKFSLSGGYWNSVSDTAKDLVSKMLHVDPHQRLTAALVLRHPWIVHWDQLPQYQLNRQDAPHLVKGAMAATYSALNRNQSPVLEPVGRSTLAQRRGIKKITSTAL
# [13] = target: WNK2 (Homo sapiens, UniProt Q9Y3S1); assay: biochemical; details: read-out: % enzyme activity, 1 μM; Run 1, Run 2
# Sequence of WNK2 (Q9Y3S1 whole entry, species assumed): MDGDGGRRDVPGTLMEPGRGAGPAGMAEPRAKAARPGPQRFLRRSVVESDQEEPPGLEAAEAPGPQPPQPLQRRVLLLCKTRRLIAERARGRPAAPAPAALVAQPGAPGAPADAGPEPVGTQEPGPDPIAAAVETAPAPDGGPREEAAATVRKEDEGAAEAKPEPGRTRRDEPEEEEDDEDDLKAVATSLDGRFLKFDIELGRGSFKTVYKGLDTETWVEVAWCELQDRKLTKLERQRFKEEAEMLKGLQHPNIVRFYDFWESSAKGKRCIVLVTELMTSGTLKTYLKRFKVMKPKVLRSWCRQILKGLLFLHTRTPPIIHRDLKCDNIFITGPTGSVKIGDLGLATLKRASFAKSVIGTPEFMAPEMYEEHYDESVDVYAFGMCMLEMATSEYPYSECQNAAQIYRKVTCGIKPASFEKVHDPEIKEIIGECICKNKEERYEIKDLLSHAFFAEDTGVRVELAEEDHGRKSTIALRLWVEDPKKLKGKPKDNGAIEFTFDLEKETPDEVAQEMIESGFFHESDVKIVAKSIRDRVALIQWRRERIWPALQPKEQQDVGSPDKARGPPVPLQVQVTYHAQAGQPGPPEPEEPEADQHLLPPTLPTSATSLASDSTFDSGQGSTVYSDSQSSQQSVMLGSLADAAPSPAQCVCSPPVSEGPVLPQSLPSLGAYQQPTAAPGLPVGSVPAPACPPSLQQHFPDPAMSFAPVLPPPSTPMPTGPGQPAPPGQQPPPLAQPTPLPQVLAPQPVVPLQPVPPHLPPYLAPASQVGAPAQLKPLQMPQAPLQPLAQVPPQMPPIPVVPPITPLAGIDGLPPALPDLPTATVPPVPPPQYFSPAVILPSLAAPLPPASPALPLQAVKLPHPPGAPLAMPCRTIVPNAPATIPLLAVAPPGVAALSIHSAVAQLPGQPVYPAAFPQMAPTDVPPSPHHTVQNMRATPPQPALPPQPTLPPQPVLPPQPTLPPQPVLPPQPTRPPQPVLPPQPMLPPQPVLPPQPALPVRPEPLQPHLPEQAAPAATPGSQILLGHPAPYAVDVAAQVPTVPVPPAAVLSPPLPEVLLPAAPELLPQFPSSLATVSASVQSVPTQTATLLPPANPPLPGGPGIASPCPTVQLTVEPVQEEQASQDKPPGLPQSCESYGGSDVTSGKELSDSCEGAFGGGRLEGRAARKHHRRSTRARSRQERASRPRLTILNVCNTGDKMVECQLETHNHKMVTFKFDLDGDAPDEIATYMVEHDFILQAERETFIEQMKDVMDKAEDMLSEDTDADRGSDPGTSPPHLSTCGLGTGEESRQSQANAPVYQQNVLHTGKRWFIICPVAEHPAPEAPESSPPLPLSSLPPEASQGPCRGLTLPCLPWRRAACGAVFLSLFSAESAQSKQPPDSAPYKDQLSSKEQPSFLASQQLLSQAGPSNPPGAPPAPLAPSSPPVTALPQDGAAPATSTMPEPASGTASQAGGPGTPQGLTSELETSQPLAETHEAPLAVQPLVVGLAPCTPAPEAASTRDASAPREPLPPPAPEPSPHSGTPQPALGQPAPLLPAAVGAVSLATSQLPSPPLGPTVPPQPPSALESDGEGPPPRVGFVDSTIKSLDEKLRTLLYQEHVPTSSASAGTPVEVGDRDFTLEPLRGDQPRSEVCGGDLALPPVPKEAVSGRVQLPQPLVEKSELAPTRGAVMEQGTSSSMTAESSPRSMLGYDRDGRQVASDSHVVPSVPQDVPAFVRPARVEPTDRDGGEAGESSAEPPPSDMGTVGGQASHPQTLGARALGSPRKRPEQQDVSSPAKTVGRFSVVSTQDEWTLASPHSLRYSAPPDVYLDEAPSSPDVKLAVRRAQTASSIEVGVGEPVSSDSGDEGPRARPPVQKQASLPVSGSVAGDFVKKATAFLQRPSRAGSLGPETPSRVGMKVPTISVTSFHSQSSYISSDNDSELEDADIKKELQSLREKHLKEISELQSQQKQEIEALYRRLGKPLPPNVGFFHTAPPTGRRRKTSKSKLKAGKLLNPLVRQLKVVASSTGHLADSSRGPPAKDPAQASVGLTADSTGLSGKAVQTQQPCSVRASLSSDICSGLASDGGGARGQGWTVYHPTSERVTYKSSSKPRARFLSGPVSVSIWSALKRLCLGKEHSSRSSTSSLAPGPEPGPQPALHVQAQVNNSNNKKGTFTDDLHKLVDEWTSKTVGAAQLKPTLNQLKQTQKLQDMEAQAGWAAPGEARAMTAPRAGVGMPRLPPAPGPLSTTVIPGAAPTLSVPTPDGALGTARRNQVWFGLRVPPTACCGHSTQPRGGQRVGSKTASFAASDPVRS
SMILES,% enzyme activity [1] [%],% enzyme activity [2] [%],% enzyme activity [3] [%],% enzyme activity [4] [%],% enzyme activity [5] [%],% enzyme activity [6] [%],% enzyme activity [7] [%],% enzyme activity [8] [%],% enzyme activity [9] [%],remaining activity at 1 µM [10] [%],remaining activity at 1 µM [11] [%],remaining activity at 1 µM [12] [%],remaining activity at 1 µM [13] [%]
"COc1cc(-c2cncc(-c3ccc(N4C[C@@H](C)N(C)[C@@H](C)C4)cc3)c2C)cc(F)c1C(N)=O [Compound 26c, 2-Fluoro-6-methoxy-4-(4-methyl-5-(4-((3R,5S)-3,4,5-trimethylpiperazin-1-yl)phenyl)pyridin-3-yl)benzamide]",96.90,101.19,97.12,100.92,68.53,97.52,99.23,92.61,98.47,100,109,103,96.9
"COc1cc(-c2cncc(-c3ccc(N4CCN(C)CC4)cc3)c2C)cc(F)c1C(N)=O [Compound 26a, 2-Fluoro-6-methoxy-4-(4-methyl-5-(4-(4-methylpiperazin-1-yl)phenyl)pyridin-3-yl)benzamide]",95.26,99.41,94.56,93.66,51.51,92.71,98.71,91.98,94.79,102,98,101,95.5
